The record followed here is PMC549391 (Nucleic Acids Research, 2005).

The target in this assay is T1, ribonuclease III (RNase III) (Escherichia coli, UniProt P0A7Y0).
T1 sequence (P0A7Y0 1-226): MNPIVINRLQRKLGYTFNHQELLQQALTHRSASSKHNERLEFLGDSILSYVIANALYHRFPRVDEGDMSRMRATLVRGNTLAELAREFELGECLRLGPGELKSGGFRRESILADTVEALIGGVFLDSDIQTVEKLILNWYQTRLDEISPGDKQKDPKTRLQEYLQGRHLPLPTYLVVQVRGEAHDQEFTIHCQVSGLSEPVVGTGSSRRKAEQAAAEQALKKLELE
Kind of assay: cleavage of […]-labeled R1.[…] RNA by purified RNase III, gel assay, […] Mg2+. In kind it is biochemical.

`O=C1Cc2ccccc2C(=O)N1O` [compound 1, 2-hydroxy-4H-isoquinoline-1,3-dione] gave an IC50 of 14 ± 2 µM.
